± gives the expanded uncertainty stated by the source.
Test: molar heat capacity at constant pressure
Conditions: 101.33 kPa, Crystal, Vacuum adiabatic calorimetry

O=C([O-])c1ccccc1C(=O)O.[K+] [potassium 2-carboxybenzoate]
Conditions	molar heat capacity at constant pressure [J/K/mol]
78.74 K	81.22 ± 0.51
81.08 K	82.76 ± 0.52
83.42 K	85 ± 0.53
85.62 K	86.29 ± 0.54
88.11 K	88.06 ± 0.55
90.01 K	90.07 ± 0.58
92.06 K	91.25 ± 0.58
94.25 K	92.66 ± 0.59
96.3 K	94.19 ± 0.6
98.21 K	95.73 ± 0.61
100.26 K	97.26 ± 0.62
102.01 K	98.56 ± 0.63
104.21 K	100.09 ± 0.64
105.82 K	101.39 ± 0.64
107.72 K	102.68 ± 0.65
109.48 K	103.75 ± 0.66
111.23 K	104.92 ± 0.67
112.99 K	106.1 ± 0.67
114.45 K	107.52 ± 0.68
116.5 K	108.7 ± 0.69
118.55 K	109.99 ± 0.7
120.9 K	111.65 ± 0.71
122.65 K	112.71 ± 0.71
126.02 K	114.95 ± 0.72
128.9 K	117.28 ± 0.74
131.81 K	119.26 ± 0.75
134.65 K	120.84 ± 0.76
137.63 K	123.15 ± 0.77
140.07 K	124.62 ± 0.78
143.44 K	126.5 ± 0.79
146.3 K	128.75 ± 0.81
149.29 K	130.28 ± 0.82
152.07 K	132.04 ± 0.83
155.1 K	134.02 ± 0.84
158.03 K	135.88 ± 0.85
161.04 K	137.98 ± 0.86
163.86 K	139.4 ± 0.87
166.86 K	141.12 ± 0.88
169.72 K	142.95 ± 0.89
172.65 K	144.78 ± 0.9
175.6 K	146.73 ± 0.91
178.52 K	148.14 ± 0.92
181.46 K	150.06 ± 0.93
185.51 K	152.18 ± 0.95
189.58 K	154.71 ± 0.96
192.49 K	156.69 ± 0.97
195.39 K	157.97 ± 0.98
198.33 K	160.11 ± 0.99
201.39 K	161.41 ± 1
204.34 K	163.34 ± 1
207.27 K	164.59 ± 1
210.19 K	166.59 ± 1
213.12 K	168.36 ± 1
216.13 K	169.91 ± 1.1
219.11 K	171.34 ± 1.1
222.05 K	173.08 ± 1.1
224.97 K	174.49 ± 1.1
228.05 K	176.26 ± 1.1
230.83 K	177.91 ± 1.1
233.76 K	178.97 ± 1.1
236.83 K	180.98 ± 1.1
239.77 K	182.23 ± 1.1
243.54 K	184.12 ± 1.1
247.46 K	186.25 ± 1.1
250.44 K	188.14 ± 1.2
253.42 K	189.68 ± 1.2
256.45 K	190.76 ± 1.2
259.37 K	192.3 ± 1.2
262.36 K	193.82 ± 1.2
265.34 K	195.71 ± 1.2
268.16 K	196.89 ± 1.2
271.14 K	198.67 ± 1.2
274.12 K	200.21 ± 1.2
277.08 K	201.26 ± 1.2
280.08 K	203.28 ± 1.2
283.06 K	204.58 ± 1.3
286.04 K	205.65 ± 1.3
289.09 K	207.51 ± 1.3
292.02 K	208.57 ± 1.3
294.94 K	210.1 ± 1.3
298.02 K	211.04 ± 1.3
300.8 K	213.17 ± 1.3
303.87 K	214.11 ± 1.3
306.8 K	215.52 ± 1.3
309.73 K	216.94 ± 1.3
312.51 K	218.12 ± 1.3
315.58 K	219.65 ± 1.4
318.36 K	221.3 ± 1.4
321.29 K	222.01 ± 1.4
324.37 K	223.43 ± 1.4
327.29 K	224.96 ± 1.4
330.37 K	226.61 ± 1.4
333.44 K	228.14 ± 1.4
336.37 K	229.67 ± 1.4
339.3 K	230.85 ± 1.4
342.37 K	232.15 ± 1.4
345.3 K	233.33 ± 1.4
348.37 K	234.39 ± 1.4
351.3 K	236.4 ± 1.4
354.23 K	237.46 ± 1.5
357.16 K	239.23 ± 1.5
360.08 K	240.52 ± 1.5
363.01 K	241.35 ± 1.5
365.94 K	243 ± 1.5
368.87 K	243.71 ± 1.5
371.83 K	244.81 ± 1.5
374.87 K	246.77 ± 1.5
377.94 K	248.3 ± 1.5
380.93 K	249.42 ± 1.5
383.91 K	250.96 ± 1.5
386.89 K	252.02 ± 1.6
390.03 K	253.44 ± 1.6
393.01 K	254.98 ± 1.6
395.98 K	255.93 ± 1.6

Reference: the NIST ThermoML archive (doi:10.1021/je900759f)
